From patent US10011573B2, “Human androgen receptor DNA-binding domain (DBD) compounds as therapeutics and methods for their use” (The University of British Columbia, priority 2014, dated 2018)
Where two headings read alike, the source gives them in different places.

Target: T1, androgen receptor (AR) (Homo sapiens, UniProt P10275, T878A)
T1 sequence (P10275 1-920 T878A): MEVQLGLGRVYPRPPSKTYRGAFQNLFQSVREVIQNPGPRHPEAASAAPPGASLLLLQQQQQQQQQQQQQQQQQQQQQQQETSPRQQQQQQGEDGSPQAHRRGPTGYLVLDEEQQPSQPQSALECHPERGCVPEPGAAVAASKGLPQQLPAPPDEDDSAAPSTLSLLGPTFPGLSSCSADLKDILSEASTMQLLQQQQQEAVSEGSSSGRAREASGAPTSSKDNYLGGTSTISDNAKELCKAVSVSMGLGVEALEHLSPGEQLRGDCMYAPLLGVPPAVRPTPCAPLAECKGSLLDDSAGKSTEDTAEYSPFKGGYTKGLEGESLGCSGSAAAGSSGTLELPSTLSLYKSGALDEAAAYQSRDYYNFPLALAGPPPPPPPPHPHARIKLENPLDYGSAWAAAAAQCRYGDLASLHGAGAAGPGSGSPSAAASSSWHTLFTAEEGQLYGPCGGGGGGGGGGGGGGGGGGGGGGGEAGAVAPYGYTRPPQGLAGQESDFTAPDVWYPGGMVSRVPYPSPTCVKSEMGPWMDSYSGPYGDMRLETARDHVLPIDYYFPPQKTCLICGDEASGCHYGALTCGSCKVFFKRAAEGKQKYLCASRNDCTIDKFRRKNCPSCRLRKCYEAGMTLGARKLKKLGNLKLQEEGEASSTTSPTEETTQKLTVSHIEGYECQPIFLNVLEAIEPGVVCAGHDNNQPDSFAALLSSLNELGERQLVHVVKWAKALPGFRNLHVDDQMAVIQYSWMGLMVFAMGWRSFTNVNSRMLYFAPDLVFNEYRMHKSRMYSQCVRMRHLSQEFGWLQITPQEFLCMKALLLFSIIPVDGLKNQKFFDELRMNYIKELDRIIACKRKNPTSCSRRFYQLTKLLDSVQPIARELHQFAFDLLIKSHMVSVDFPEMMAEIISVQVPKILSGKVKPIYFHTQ
Test: eGFP cellular AR transcription assay (LNCaP eGFP cells, LN-ARR2PB-eGFP)
Settings: for inhibition at 3 µM: LNCaP, read-out: % Inhibition (3 μM); for IC50: eGFP IC50 (μM); for anti-AR activity (AR transcriptional inhibition) in words: LNCaP (T877A AR); for eGFP IC50: 0.1 nM R1881

| Compound | inhibition at 3 µM [%] | % Inhibition (3 μM) [%] | also measured |
| --- | --- | --- | --- |
| C[C@@H]1C(=O)N(c2ccccc2)C2C=CC=CC21 (stereo partly shown) [Compound 14078] | 65.4 |  | IC50 (LNCaP eGFP cells): 20 µM |
| CC(=O)c1ccc(-c2ccccc2)s1 [Compound 14422] | 131 |  | IC50 (Series 1): 2.26 µM |
| CN1CCN(c2nc(-c3ccccc3)cs2)CC1 [Compound 14338] |  | 19.33 |  |
| Cc1sc(N2CCOCC2)nc1-c1ccccc1 [Compound 14349] |  |  | IC50 (Series 1): 1.47 µM |
| Nc1ccccc1CN1C(=O)Cc2ccccc21 [Compound 14082] | 93.1 |  | IC50 (LNCaP eGFP cells): 9.5 µM |
| N#Cc1ccc(-c2csc(N3CCOCC3)n2)cc1 [Compound 14457] |  |  | % Inhibition (3 μM) (3 µM): 80% |
| FC(F)(F)c1cccc(-c2csc(-c3ccncc3)n2)c1 [Compound 14421] | 107 |  | IC50 (Series 1): 4.61 µM |
| c1ccn(-c2csc(N3CCOCC3)n2)c1 [Compound 14411] |  | 44.00 |  |
| COc1ccc(-c2csc(N3CCOCC3)n2)cc1OC [Compound 14252] |  | 26.03 |  |
| O=C1C(Cl)=C(N2CCOCC2)C(=O)N1c1ccccc1Cl [Compound 14475] |  | 8.89 |  |
| c1cc2c(cc1-c1csc(N3CCOCC3)n1)CCCC2 [Compound 14291] | 18.6 |  | anti-AR activity (AR transcriptional inhibition) in words: lost their anti-AR activity; eGFP IC50 (LNCaP eGFP cells): Low activity |
| CNc1cc(F)c(OC)c(-c2csc(N3CCOCC3)n2)c1 [Compound 14465] |  |  | IC50 (Series 1): 3.06 µM |
| CC1CN(c2cnc3ccccc3n2)CC(C)O1 (stereo not shown) [Compound 14487] | 27 |  |  |
| c1cc2c3c(ccc(-c4ccn[nH]4)c3c1)CC2 [Compound 14053] |  |  | IC50 (LNCaP eGFP cells): 4 µM |
| c1ccc2cc(-c3csc(N4CCOCC4)n3)ccc2c1 [Compound 14231] |  | 38.78 |  |
| c1ccc2cc(-n3ccnc3)ccc2c1 [Compound 14018] |  |  | IC50 (LNCaP eGFP cells): 13.9 µM |
| NC(=S)N/N=C1\CCCc2ccccc21 [Compound 14175] | 45.5 |  | IC50 (LNCaP eGFP cells): 13.6 µM |
| CSc1ccc(-c2csc(N3CCOCC3)n2)cc1 [Compound 14297] |  | 109.99 |  |
| COc1ccccc1-c1nc(N2CCOCC2)sc1C [Compound 14363] |  | 29.03 |  |
| Clc1ccc(-c2csc(N3CCOCC3)n2)cc1 [Compound 14253] | 38.2 |  | IC50 (Series 1): 39.9 µM |
| c1ccc2sc(N3CCOCC3)nc2c1 [Compound 14393] | 31.2 |  | IC50 (LNCaP eGFP cells): 46.6 µM |
| O=C(O)c1csc(N2CCOCC2)n1 [Compound 14502] | 0 |  |  |
| c1sc(N2CCOCC2)nc1C1CCCC1 [Compound 14403] | 22 |  | anti-AR activity (AR transcriptional inhibition) in words: lost their anti-AR activity; eGFP IC50 (LNCaP eGFP cells): Low activity |
| Oc1ccc(-c2csc(N3CCOCC3)n2)c(O)c1 [Compound 14295] |  | 24.7 |  |
| Clc1ccccc1-c1csc(N2CCOCC2)n1 [Compound 14437] |  | 45.04 |  |
| Oc1ccccc1-c1ccc2cccnc2n1 [Compound 14336] | 27.1 |  |  |

| Compound | inhibition at 3 µM [%] | % Inhibition (3 μM) [%] | also measured |
| --- | --- | --- | --- |
| Oc1ccc(-c2csc(N3CCOCC3)n2)cc1O [Compound 14267] |  | 19.95 |  |
| Nc1cccc(-c2ccc3ccccc3n2)c1 [Compound 14321] | 66.5 |  |  |
| C/C(=N\NC(N)=S)c1ccc2c3c(cccc13)CC2 [Compound 14206] | 109 |  | IC50 (LNCaP eGFP cells): 3.4 µM |
| Cc1cc(N2CCOCC2)nc2ccccc12 [Compound 14434] |  |  | IC50 (LNCaP eGFP cells): 1.09 µM |
| CNC(=S)N/N=C1\C(=O)c2cccc3cccc1c23 [Compound 14153] |  |  | IC50 (LNCaP eGFP cells): 6 µM |
| CS(=O)(=O)c1ccc(-c2csc(N3CCOCC3)n2)cc1 [Compound 14277] |  | 12.71 |  |
| Oc1ccccc1/C=C/c1ccccn1 [Compound 14088] |  |  | IC50 (LNCaP eGFP cells): 3.54 µM |
| Oc1ccc(-c2csc(-c3ccccc3)n2)cc1 [Compound 14420] | 125 |  | IC50 (Series 1): 3.73 µM |
| O=C1C(Cl)=C(N2CCOCC2)C(=O)N1c1ccccc1 [Compound 14476] |  | 9.79 |  |
| Nc1ccc(-c2csc(N3CCOCC3)n2)cc1 [Compound 14256] |  | 28.14 |  |
| c1ccc2sc(-c3csc(N4CCOCC4)n3)nc2c1 [Compound 14137] |  | 37.44 |  |
| NC(=S)NN=C(c1ccccc1)c1ccccc1 [Compound 14172] | 46.4 |  | IC50 (LNCaP eGFP cells): 29.4 µM |
| COc1c(F)cc(O)cc1-c1csc(N2CCOCC2)n1 [Compound 14467] |  |  | IC50 (Series 1): 3.7 µM |
| CC1CN(c2nc(-c3ccc([N+](=O)[O-])cc3)cs2)C(C)CO1 (stereo not shown) [Compound 14247] |  | 3.73 |  |
| c1ccc(-c2csc(N3CCCC3)n2)cc1 [Compound 14351] |  | 38.4 |  |
| Fc1ccc(-c2csc(N3CCSCC3)n2)cc1 [Compound 14386] |  |  | IC50 (Series 1): 1.6 µM |
| Brc1ccc(-c2csc(N3CCOCC3)n2)cc1 [Compound 14251] |  | 7.96 |  |
| Cc1ccc(-c2csc(N3CCOCC3)n2)cc1C [Compound 14294] | 40 |  | IC50 (Series 1): 10.3 µM |
| Cc1ccc(-c2csc(N3CCOCC3)n2)c(C)c1 [Compound 14283] |  | 38.89 |  |
| CS(=O)(=O)c1c(F)cccc1-c1csc(N2CCOCC2)n1 [Compound 14429] |  |  | IC50 (Series 1): 3.55 µM |
| c1cc2c(cc1-c1csc(N3CCOCC3)n1)COC2 [Compound 14282] |  | 29.04 |  |
| Fc1ccccc1-c1csc(N2CCOCC2)n1 [Compound 14286] |  | 85.86 |  |
| CC(C)Oc1c(F)cccc1-c1csc(N2CCOCC2)n1 [Compound 14430] | 106 |  | IC50 (Series 1): 5.27 µM |
| NC(=O)c1ccc(-c2ccc3ccccc3n2)cc1 [Compound 14389] | 14.5 |  |  |
| N#Cc1cc2ccccc2nc1N1CCOCC1 [Compound 14433] |  |  | IC50 (LNCaP eGFP cells): 1.95 µM |
| c1ccc2c(-c3csc(N4CCOCC4)n3)cccc2c1 [Compound 14230] | 99.5 |  | IC50 (Series 1): 1.61 µM |

| Compound | inhibition at 3 µM [%] | % Inhibition (3 μM) [%] | also measured |
| --- | --- | --- | --- |
| Cc1sc(N2CCOCC2)nc1-c1ccc(F)cc1 [Compound 14341] |  | 43.7 |  |
| COc1ccc(-c2csc(N3CCOCC3)n2)cc1 [Compound 14249] |  | 45.16 |  |
| COc1ccc(-c2csc(N3CCOCC3)n2)c(OC)c1 [Compound 14268] |  | 37.55 |  |
| CC1CN(c2nc(-c3ccc(Cl)cc3)cs2)C(C)CO1 (stereo not shown) [Compound 14248] |  | 4.73 |  |
| OCc1cccc(-c2ccc3ccccc3n2)c1 [Compound 14388] | 44.9 |  | IC50 (LNCaP eGFP cells): 10.4 µM |
| Oc1ccc(-c2ccc3ccccc3n2)cc1 [Compound 14440] | 8.65 |  | IC50 (LNCaP eGFP cells): 9.48 µM |
| c1sc(N2CCOCC2)nc1C1CCCCC1 [Compound 14406] | 33 |  | anti-AR activity (AR transcriptional inhibition) in words: lost their anti-AR activity; eGFP IC50 (LNCaP eGFP cells): Low activity |
| COc1ccc(-c2csc(-c3c[nH]c4ccccc34)n2)cc1 [Compound 14443] |  | 25.15 |  |
| CC1CCCN(c2nc(-c3ccc(O)cc3O)cs2)C1 (stereo not shown) [Compound 14301] | 60 |  | IC50 (Series 1): 5 µM |
| c1ccc(-c2csc(N3CCSCC3)n2)cc1 [Compound 14385] |  |  | IC50 (Series 1): 0.6 µM |
| c1ccc2c(N3CCOCC3)nccc2c1 [Compound 14112] | 9 |  |  |
| C/C(=N/O)c1ccc2c(C)ccc3c2c1CC3 [Compound 14171] | 99.6 |  | IC50 (LNCaP eGFP cells): 3.38 µM |
| Clc1cnccc1-c1csc(N2CCOCC2)n1 [Compound 14446] |  | 24 |  |
| O=c1[nH]c(N2CCOCC2)cc2ccccc12 [Compound 14453] | 17.3 |  |  |
| c1ccc(-c2csc(-c3c[nH]c4ccccc34)n2)cc1 [Compound 14361] | 41.6 |  | IC50 (Series 1): 10.1 µM |
| NC(=S)N/N=C1\C(=O)c2cccc3cccc1c23 [Compound 14151] |  |  | IC50 (LNCaP eGFP cells): 30 µM |
| c1ccc2oc(-c3csc(N4CCOCC4)n3)cc2c1 [Compound 14136] |  | 40.98 |  |
| N#Cc1ccc(-c2csc(N3CCOCC3)n2)cc1 [Compound 14261] |  |  | % Inhibition (3 μM) (3 µM): 25.48% |
| c1ccc2nc(N3CCCCC3)ccc2c1 [Compound 14495] | 89.4 |  | IC50 (LNCaP eGFP cells): 0.6 µM |
| Cc1ccc(-c2nc(N3CCOCC3)sc2C)cc1 [Compound 14284] |  | 30.22 |  |
| c1ccc2c(-n3ccnc3)cccc2c1 [Compound 14163] |  |  | IC50 (LNCaP eGFP cells): 24 µM |
| NC(=S)N/N=C1\Cc2cccc3cccc1c23 [Compound 14005] | 92.5 |  | IC50 (LNCaP eGFP cells): 2 µM |
| NC(=O)N1CCN(c2nc(-c3ccccc3)cs2)CC1 [Compound 14339] |  | 15.82 |  |
| NC(=S)NN=C1c2ccccc2-c2ccccc21 [Compound 14205] | 45.8 |  | IC50 (LNCaP eGFP cells): 7.38 µM |
